# From patent publication US9012431B2, “Boron-containing small molecules as anti-inflammatory agents” (Anacor Pharmaceuticals, Inc., priority 2008, dated 2015)
# How the values were obtained:
# [1] = system: TNF-α; experiment: Cytokine assay, TNF-α release from PBMC; type: cell-based; details: 1 μg/mL LPS; for IC50: Homo sapiens, PBMC, 24 h, supernatant at 24 hours
# Experimental: (§1) The ability of the compounds described herein to inhibit pro-inflammatory cytokines or phsophodiesterases were tested.
# (§2) Frozen human peripheral blood mononucleocytes (PBMC) were thawed and centrifuged. Cryopreservation media was aspirated off of the cell pellet, and the cells were resuspended in fresh culture media (CM) comprising RPMI 1640 and 10% FBS in 96 well plates. Test article was dissolved in DMSO to form a 10 mM sample (DMSO, 100%). The 10 mM samples were diluted to 100 μM in CM (DMSO, 1%), then further diluted to 10, 1, 0.1, 0.01 μM in 200 μL of CM (n=3). […] IL-23 was assayed using a commercial ELISA kit (R&D Systems).
# [2] = system: IFN-γ; experiment: Cytokine assay, IFN-γ release from PBMC; type: cell-based; details: human PBMC, 20 ug/mL PHA, supernatant at 24 hours
# Experimental: as §1, §2
# [3] = system: T1, PDE4 partially purified from human U-937 myeloid leukemia cells; experiment: PDE4 Assay (enzyme from U-937 cells, [3H]cAMP); type: biochemical; details: PDE4 from U-937 cells, Tris buffer pH 7.5, 20 minutes at 25° C.
# T1 construct: PDE4 partially purified from human U-937 myeloid leukemia cells was used
# Experimental: Test article and/or vehicle was incubated with 0.2 mg enzyme and 1 mM cAMP containing 0.01 mM [3H]cAMP in Tris buffer pH 7.5 for 20 minutes at 25° C. The reaction was terminated by boiling for 2 minutes and the resulting AMP is converted to adenosine by addition of 10 mg/ml snake venom nucleotidase and further incubation at 37° C. for 10 minutes. Unhydrolyzed cAMP is bound to AG1-X2 resin, and remaining [3H]Adenosine in the aqueous phase is quantitated by scintillation counting.
# [4] = system: IL-10; experiment: Cytokine assay, IL-10 release from PBMC; type: cell-based; details: human PBMC, 20 ug/mL PHA; for IC50: supernatant at 48 hours
# Experimental: as §1, §2
# [5] = system: IL-2; experiment: Cytokine assay, IL-2 release from PBMC; type: cell-based; details: human PBMC, 20 ug/mL PHA; for IC50: supernatant at 24 hours
# Experimental: as §1, §2
# [6] = system: IL-5; experiment: Cytokine assay, IL-5 release from PBMC; type: cell-based; details: human PBMC, 20 ug/mL PHA; for IC50: supernatant at 48 hours
# Experimental: as §1, §2
SMILES,IC50 [1] [nM],IC50 [2] [nM],IC50 [3] [nM],IC50 [4] [nM],IC50 [5] [nM],IC50 [6] [nM],"inhibition at 10 µM ([1]; human PBMC, 24 hours, 10 μM) [%]","inhibition at 10 µM ([4]; 48 hours, 10 μM) [%]","inhibition at 10 µM ([5]; 24 hours, 10 μM) [%]","inhibition at 10 µM ([6]; 48 hours, 10 μM) [%]"
"N#Cc1ccc(Oc2ccc3c(c2)COB3O)nc1NCCOCc1ccccc1 [D113, 2-(2-Benzyloxy-ethylamino)-6-(1-hydroxy-1,3-dihydro-benzo[c][1,2]oxaborol-5-yloxy)-nicotinonitrile]",< 1000,< 1000,< 1000,4000 to 10000,< 1000,< 1000,–,–,–,–
"CS(=O)(=O)c1ccc(Oc2ccc3c(c2)COB3O)cc1 [D103, 5-(4-(methylsulfonyl)phenoxy)benzo[c][1,2]oxaborol-1 (3H)-ol]",1000 to 4000,< 1000,1000 to 4000,1000 to 4000,< 1000,< 1000,–,–,–,–
"N#Cc1ccc(Oc2ccc3c(c2)COB3O)cc1Cl [D2, 5-(3-Chloro-4-cyanophenoxy)-1-hydroxy-2,1-benzoxaborole]",< 1000,< 1000,< 1000,> 10000,< 1000,< 1000,–,–,–,–
"O=C(O)c1ccc(Oc2ccc3c(c2)COB3O)cc1 [C38, 4-(1-hydroxy-1,3-dihydro-benzo[c][1,2]oxaborol-5-yloxy)-benzoic acid]",> 10000,> 10000,4000 to 10000,> 10000,> 10000,> 10000,–,–,–,–
"N#Cc1ccc(NCCO)nc1Oc1ccc2c(c1)COB2O [D106, 2-(1-Hydroxy-1,3-dihydro-benzo[c][1,2]oxaborol-5-yloxy)-6-(2-hydroxy-ethylamino)-nicotinonitrile]",< 1000,< 1000,< 1000,4000 to 10000,< 1000,< 1000,–,–,–,–
"NCc1ccc(Oc2ccc3c(c2)COB3O)cc1 [D59, (4-(1-Hydroxy-1,3-dihydrobenzo[c][1,2]oxaborol-5-yloxy)phenyl) methanaminium chloride]",–,–,> 10000,–,–,–,30 to 60,< 30,60 to 90,30 to 60
"CCOc1cc(Oc2ccc3c(c2)COB3O)ncc1C#N [D120, 4-Ethoxy-6-(1-hydroxy-1,3-dihydro-benzo[c][1,2]oxaborol-5-yloxy)-nicotinonitrile]",< 1000,< 1000,< 1000,< 1000,< 1000,< 1000,–,–,–,–
"N#Cc1ccc(Oc2ccc3c(c2)COB3O)cc1OCC(=O)N1CCOCC1 [D41, 4-(1-Hydroxy-1,3-dihydro-benzo[c][1,2]oxaborol-5-yloxy)-2-(2-morpholin-4-yl-2-oxo-ethoxy)-benzonitrile]",1000 to 4000,< 1000,< 1000,1000 to 4000,< 1000,1000 to 4000,–,–,–,–
"CCN(CC)C(=O)COc1cc(C#N)ccc1Oc1ccc2c(c1)COB2O [D28, 2-(5-cyano-2-(1-hydroxy-1,3-dihydrobenzo[c][1,2]oxaborol-5-yloxy)phenoxy)-N,N-diethylacetamide]",< 1000,< 1000,< 1000,1000 to 4000,< 1000,< 1000,–,–,–,–
"CC(=O)OCCOc1nc(Oc2ccc3c(c2)COB3O)ccc1C#N [D126, 2-[3-cyano-6-(1-hydroxy-1,3-dihydro-benzo[c][1,2]oxaborol-5-yloxy)-pyridin-2-yloxy]-ethyl acetate]",< 1000,< 1000,< 1000,< 1000,< 1000,< 1000,–,–,–,–
"O=C(NCc1ccccn1)c1ccc(Oc2ccc3c(c2)COB3O)cc1 [D78, 4-(1-Hydroxy-1,3-dihydro-benzo[c][1,2]oxaborol-5-yloxy)-N-pyridin-2-ylmethyl-benzamide]",1000 to 4000,1000 to 4000,< 1000,1000 to 4000,1000 to 4000,1000 to 4000,–,–,–,–
"N#Cc1ccc(Oc2ccc3c(c2)COB3O)nc1OCC(F)F [D127, 2-(2,2-Difluoro-ethoxy)-6-(1-hydroxy-1,3-dihydro-benzo[c][1,2]oxaborol-5-yloxy)-nicotinonitrile]",< 1000,< 1000,< 1000,< 1000,< 1000,< 1000,–,–,–,–
